Molecules are shown by their SMILES. Read-outs that look alike come from different tables or passages of the source.

Assay type in all cases: cell-based
The target in one test is T1, human TLR7 (Homo sapiens, UniProt Q9NYK1).
T1 construct: host or cells: HEK293
T1 sequence (Q9NYK1 27-1049): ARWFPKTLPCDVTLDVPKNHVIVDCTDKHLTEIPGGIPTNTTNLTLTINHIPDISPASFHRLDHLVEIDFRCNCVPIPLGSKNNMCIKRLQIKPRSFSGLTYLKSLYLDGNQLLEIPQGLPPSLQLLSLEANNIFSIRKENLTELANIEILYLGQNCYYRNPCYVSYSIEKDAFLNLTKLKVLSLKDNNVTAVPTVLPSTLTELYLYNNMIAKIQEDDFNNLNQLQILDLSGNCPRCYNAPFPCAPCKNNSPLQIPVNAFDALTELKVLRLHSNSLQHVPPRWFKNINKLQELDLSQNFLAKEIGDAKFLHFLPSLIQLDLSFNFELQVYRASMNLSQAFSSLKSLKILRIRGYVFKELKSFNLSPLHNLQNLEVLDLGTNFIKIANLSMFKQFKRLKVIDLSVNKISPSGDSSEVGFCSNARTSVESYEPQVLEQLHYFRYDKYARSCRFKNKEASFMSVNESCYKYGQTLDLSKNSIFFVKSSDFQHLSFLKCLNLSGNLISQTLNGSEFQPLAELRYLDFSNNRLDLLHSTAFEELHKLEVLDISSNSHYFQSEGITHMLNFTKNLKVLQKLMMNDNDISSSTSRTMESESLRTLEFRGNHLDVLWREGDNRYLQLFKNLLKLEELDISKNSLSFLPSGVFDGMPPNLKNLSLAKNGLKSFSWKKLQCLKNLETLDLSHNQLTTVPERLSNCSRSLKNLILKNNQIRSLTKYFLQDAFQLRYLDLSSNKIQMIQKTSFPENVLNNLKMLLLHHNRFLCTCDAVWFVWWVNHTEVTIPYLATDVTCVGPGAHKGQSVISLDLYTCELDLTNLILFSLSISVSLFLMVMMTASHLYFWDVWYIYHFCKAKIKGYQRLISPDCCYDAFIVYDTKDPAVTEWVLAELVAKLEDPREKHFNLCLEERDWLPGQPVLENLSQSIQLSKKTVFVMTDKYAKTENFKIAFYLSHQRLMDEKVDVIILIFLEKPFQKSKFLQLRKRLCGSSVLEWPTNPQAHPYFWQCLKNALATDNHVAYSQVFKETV
The test can be described thus: hTLR7 agonist reporter assay in HEK293 cells (NFκB-SEAP). Conditions: for EC50: read-out: hTLR7 ED50; for hTLR7/8 ratio: hTLR7 ED50 over hTLR8 ED50. Here is the method: (§1) Assay for hTLR7 and hTLR8 Agonist Activity in HEK-293 Cells
(§2) Determination of TLR agonist activity was performed using the HEK293 […]. This assay measures TLR7 and TLR8 selectivity and potency of the compounds tested. HEK293 cells expressing human TLR7 or TLR8 and NFκB responsive Secreted Embryonic Alkaline Phosphatase (SEAP) reporter gene were obtained from InvivoGen (San Diego, Calif.). These cells were maintained in culture media of Dulbecco's Modified Eagle Medium (DMEM) (Invitrogen, Grand Island, N.Y.), 10% Fetal Bovine Serum (FBS) (Sigma, St. Louis, Mo.) and selection antibiotics (Invitrogen, and Invivogen). HEK293 stably transfected with human TLR7 (hTLR7) or human TLR8 (hTLR8) were stimulated for 24 h with aqueous formulations of test compounds and culture supernatants were analyzed for NFκB activation using the colorimetric SEAP detection kit QuantBlue (InvivoGen).
(In a reporter assay the amount or activity of a reporter protein is the signal.)

Test [1] has as its system human peripheral blood mononuclear cells (hPBMCs). Nature of the test: TNF-α induction in hPBMCs. Conditions: 24 h. Here is the method: (§3) Assays to Measure Cytokine Induction
(§4) Test compounds were evaluated for cytokine induction in human peripheral blood mononuclear cells (hPBMCs).
(§5) Primary human PBMCs were isolated from fresh blood from healthy donors via Ficoll gradient separation and plated at 0.5×10^6 cells/well in 96-well tissue culture plates (RPMI-1640 plus 10% FBS). hPBMCs were maintained with RPMI-1640 culture media (Invitrogen, Grand Island, N.Y.), antibiotics (Invitrogen) and 10% FBS (Sigma).
(§6) Incubation and Assays for IFN-γ, IFN-α and TNF-α
(§7) hPBMCs were stimulated for 24 h with aqueous formulations of test compounds. Culture supernatants were analyzed for TNF-α and IFN-γ induction using multiplex kits (FluoroKine multiplex kits from R&D Systems, Minneapolis, Minn.) and for IFN-α induction using human IFN-α VeriKine ELISA kit (Pestka Biomedical Laboratories, Inc., Piscataway, N.J.).

For test [2] the test system is unchanged. The test can be described thus: IFN-γ induction in hPBMCs. Conditions: 24 h, FIG. 11, another occasion. Here is the method: as §3, §4, §5, §6, §7
Test [3] has the same test system. Nature of the test: IFN-α induction in hPBMCs. As to conditions: 24 h. Here is the method:
as §3, §4, §5, §6, §7

The target of another test is T2, human TLR8 (Homo sapiens, UniProt Q9NR97).
T2 construct: host or cells: HEK293
T2 sequence (Q9NR97 27-1041): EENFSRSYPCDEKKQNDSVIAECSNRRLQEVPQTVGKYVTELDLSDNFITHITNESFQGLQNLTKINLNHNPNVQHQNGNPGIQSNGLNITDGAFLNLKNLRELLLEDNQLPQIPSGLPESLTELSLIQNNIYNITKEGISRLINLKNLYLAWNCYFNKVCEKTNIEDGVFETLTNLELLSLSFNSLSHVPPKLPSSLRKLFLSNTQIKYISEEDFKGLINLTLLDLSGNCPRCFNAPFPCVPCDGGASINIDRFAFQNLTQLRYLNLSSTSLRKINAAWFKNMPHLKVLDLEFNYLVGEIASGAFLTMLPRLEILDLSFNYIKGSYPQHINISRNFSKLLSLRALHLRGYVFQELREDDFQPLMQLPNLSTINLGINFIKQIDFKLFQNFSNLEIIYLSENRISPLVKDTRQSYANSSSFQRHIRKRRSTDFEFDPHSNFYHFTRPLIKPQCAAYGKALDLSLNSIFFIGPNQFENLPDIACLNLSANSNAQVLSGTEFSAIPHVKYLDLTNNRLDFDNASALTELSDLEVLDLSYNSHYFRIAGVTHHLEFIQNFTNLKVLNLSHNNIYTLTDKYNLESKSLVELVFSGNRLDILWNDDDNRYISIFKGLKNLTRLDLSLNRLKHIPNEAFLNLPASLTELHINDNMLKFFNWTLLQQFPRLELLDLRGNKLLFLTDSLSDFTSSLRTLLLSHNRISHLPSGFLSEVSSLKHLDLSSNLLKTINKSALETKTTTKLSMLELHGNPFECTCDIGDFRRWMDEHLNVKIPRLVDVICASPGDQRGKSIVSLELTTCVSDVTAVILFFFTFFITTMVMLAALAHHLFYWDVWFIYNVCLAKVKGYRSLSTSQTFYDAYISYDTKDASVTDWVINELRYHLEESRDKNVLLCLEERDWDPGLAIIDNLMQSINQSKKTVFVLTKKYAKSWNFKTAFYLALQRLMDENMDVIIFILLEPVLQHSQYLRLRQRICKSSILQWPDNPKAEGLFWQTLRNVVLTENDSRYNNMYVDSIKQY
Nature of the test: hTLR8 agonist reporter assay in HEK293 cells (NFκB-SEAP). As to conditions: for EC50: read-out: hTLR8 ED50. Here is the method:
as §1, §2

The mark [4] stands for this setting: Table 2, FIG. 3, another occasion, * = only very low levels of NFKB activation were detected.
Setting [5] is: Table 2, FIG. 4, another occasion, * = only very low levels of NFKB activation were detected.

For the molecule `CCCCCCCC/C=C\CCCCCCCC(=O)OC[C@@H](O)COP(=O)(O)OCCOc1ccc2c(c1)nc(N)c1nc(CCCC)n(CCO)c12` [Example 3], at human TLR7 (Table 2), the “relative potency hTLR7 versus hTLR8, in words” value was “approximately equally potent at both receptors” and the hTLR7/8 ratio came out at 1.2. Further, the EC50 on human TLR7 (setting [4]) turned out to be 3400 nM. Also, the “hTLR7 agonist activity, in words” value on human TLR7 (text on Table 2, FIG. 3) is “potent agonist of hTLR7 and hTLR8”. Moreover, the “TNF-α induction, in words” value in test [1] (FIG. 13) was “potent at inducing TNF-α”. In addition, the “IFN-γ induction, in words” value in test [2] is “potent at inducing IFN-γ and each was more potent than Comparative Example 3”. In addition, in test [3] (FIG. 12, another occasion), the “IFN-α induction, in words” value is “more potent at inducing IFN-α than Comparative Examples 1, 2 and 3”. On human TLR8 (setting [5]), the EC50 was 2800 nM. Besides, the “hTLR8 agonist activity, in words” value at human TLR8 (text on Table 2, FIG. 4) is “potent agonist of hTLR7 and hTLR8”.
In the case of `CCCCc1nc2c(N)nc3ccccc3c2n1CCO` [Comparative Example 1, reference compound], the hTLR7/8 ratio is reported as 3.1 on human TLR7 (Table 1), 2.3 on human TLR7 (Table 2), 1.5 at human TLR7 (Table 3) and 2.4 on human TLR7 (Table 4). In addition, the EC50 on human TLR7 (setting [4]) amounted to 1000 nM; on human TLR7 (Table 3, FIG. 5, another occasion, * = only very low levels of NFKB activation were detected), 1100 nM; at human TLR7 (Table 4, FIG. 7, another occasion), 1500 nM; on human TLR8 (setting [5]), 400 nM; at human TLR8 (Table 3, FIG. 6, another occasion, * = only very low levels of NFKB activation were detected), 720 nM; at human TLR8 (Table 4, FIG. 8, another occasion), 610 nM. Also, the “TNF-α induction, in words” value is recorded as “potent at inducing TNF-α” in test [1] (FIG. 13) and “effective at inducing TNF-α” in test [1] (FIG. 15, another occasion). Besides, the “IFN-γ induction, in words” value in test [2] is listed as “the most potent at inducing IFN-γ”. Further, the “IFN-α induction, in words” value in test [3] (FIG. 14, another occasion) is recorded as “Weaker effects”; in test [3] (FIG. 16, another occasion), “induced little IFN-α”.
